# According to patent US11364246B2, “Compounds” (TMEM16A Limited, priority 2019, dated 2022):
# Biological target: human TMEM16A (Homo sapiens, UniProt Q5XXA6)
# Assay: Automated whole-cell patch clamp (Qpatch) assay to detect TMEM16A activity in recombinant cells
# Format: cell-based
# Settings: 3.33 μM test compound; % increase of baseline TMEM16A current; FRT cells stably expressing human TMEM16A (TMEM16Aabc variant); intracellular calcium at EC20
# Method: Automated Whole-Cell Patch Clamp Assay to Detect TMEM16A Activity in Recombinant Cells
# Fisher rat thyroid (FRT) cells stably expressing human TMEM16A (TMEM16Aabc variant; Dr Luis Galietta, Insituto Giannina, Italy) were cultured in T-75 flasks in Hams F-12 media with Coon's modification (Sigma) supplemented with 10% (v/v) foetal bovine serum, penicillin-streptomycin (10,000 U/mL/10000 pg/mL), G-418 (750 pg/mL), L-glutamine (2 mM) and sodium bicarbonate solution (7.5% v/v). At −90% confluence cells were harvested for experiments by detachment with a 2:1 (v/v) mixture of Detachin (BMS Biotechnology) and 0.25% (w/v) trypsin-EDTA. Cells were diluted to a density of 3.5-4.5×10^6 cells/mL with media consisting of CHO-S-SFM (Sigma), 25 mM HEPES (Sigma) and Soy bean trypsin inhibitor (Sigma).
# FRT-TMEM16A cells were whole-cell patch clamped using an automated planar patch clamp system (Qpatch, Sophion). Briefly, once high resistance (GOhm) seals were established between the cells and the planar recording array the patch was ruptured using suction pulses to establish the whole-cell recording configuration of the patch clamp technique. The assay employed the following solutions (all reagents Sigma): Intracellular solution (mM): N-methyl-D-glucamine 130, CaCh 18.2, MgCh 1. HEPES 10, EGTA 10, BAPTA 20, Mg-ATP 2, pH 7.25, 325 mOsm with sucrose.
# Extracellular solution (mM): N-methyl-D-glucamine 130, CaCl2 2, MgCh 1, HEPES 10, pH 7.3, 320 mOsm with sucrose.
# The intracellular solution buffers intracellular calcium at levels required to give −20% activation of the maximal TMEM16A mediated current (EC20 for calcium ions). Cells were voltage clamped at a holding potential of −70 mV and a combined voltage step (to +70 mV)/ramp (−90 my to +90 mV) was applied at 0.05 Hz. After a period of current stabilisation test compounds, solubilised in 100% (v/v) DMSO and subsequently diluted into extracellular solution, were applied to generate a cumulative concentration response curve. Each concentration of test compound was incubated for 5 minutes before addition of the next concentration. After the final concentration was tested a supramaximal concentration of either a known active positive modulator or the TMEM16A inhibitor. CaCCinhAOI (Del La Fuente et al, 2008) was added to define the upper and lower limits of the assay.
# Compound activity was quantified by measuring the increase in current upon compound addition and expressing this as a percentage increase of baseline TMEM16A current level. […]
# Peak TMEM16A current at +70 mV was plotted as a function of time over the assay period. Baseline current (IBL) was measured after a period of stabilisation. The increase in current for each compound addition was determined by taking the peak current during the incubation period and subtracting the current from the previous recording period and then expressing this as a percentage of the baseline current. […]
# For each additional concentration tested the increase in current was determined by subtracting the current from the previous incubation period and normalising the baseline value—for test concentration 2 in FIG. 1 this is: (I[#2]−I[# ? /IBL)×100
# The values for each test concentration were plotted as a cumulative function of concentration eg. for test concentration two this would be the sum of the peak changes measured during concentration one plus concentration two.
row,Structure (SMILES),% Potentiation @ 3.33 μM Avg [%]
1,"CC(C)(C)NC(=O)c1cc(NC(=O)C2(c3cccc(Cl)c3)CC2)ccn1 [Example 5.31, N-tert-butyl-4-[[1-(3-chlorophenyl)cyclopropanecarbonyl]amino]pyridine-2-carboxamide]",145
2,"C#CC(C)(C)NC(=O)c1cc(NC(=O)Cc2cccc3cc[nH]c23)ccn1 [Example 79.3, N-(1,1-Dimethylprop-2-ynyl)-4-[[2-(1H-indol-7-yl)acetyl]amino]pyridine-2-carboxamide]",64
3,"CC(C)(C)NC(=O)c1cc(NC(=O)[C@@H]2CCc3ccccc32)ccn1 (single isomer, unassigned) [Example 21a, N-tert-Butyl-4-[[(1R)-indane-1-carbonyl]amino]pyridine-2-carboxamide or N-tert-Butyl-4-[[(1S)-indane-1-carbonyl]amino]pyridine-2-carboxamide]",99
4,"O=C(Cc1cc(Cl)ccc1O)Nc1ccnc(C(=O)NC23CCC(F)(C2)C3)c1 [Example 44, 4-[[2-(5-Chloro-2-hydroxy-phenyl)acetyl]amino]-N-(4-fluoro-1-bicyclo[2.1.1]hexanyl)pyridine-2-carboxamide]",1
5,"O=C(Cc1cc(Cl)ccc1O)Nc1ccnc(C(=O)N[C@@]2(CO)CCOC2)c1 (single isomer, unassigned) [Example 35b, 4-[[2-(5-Chloro-2-hydroxy-phenyl)acetyl]amino]-N-[(3R)-3-(hydroxymethyl)tetrahydrofuran-3-yl]pyridine-2-carboxamide or 4-[[2-(5-chloro-2-hydroxy-phenyl)acetyl]amino]-N-[(3S)-3-(hydroxymethyl)tetrahydrofuran-3-yl]pyridine-2-carboxamide]",190
